Assay results published in ChEMBL document CHEMBL2375321, “Discovery of 3,3'-diindolylmethanes as potent antileishmanial agents” (Eur J Med Chem, 2013).
Values after ≈ are worked out from the molar mass of the structure shown. Active and inactive are the calls of the source. Unless noted, the calls are words filed in the database; no cut-off is given here.

Legend:
[1] = test system: Vero; experiment: Cytotoxicity against african green monkey Vero cells up to 4.6 ug/ml after 48 hrs by neutral red assay; assay type: cell-based; conditions: chlorocebus sabaeus
[2] = test system: Leishmania donovani; experiment: Antileishmanial activity against axenic amastigote of Leishmania donovani after 72 hrs by alamar blue assay; assay type: functional, organism-based
[3] = test system: Leishmania donovani; experiment: Antileishmanial activity against promastigote of Leishmania donovani after 72 hrs by alamar blue assay; assay type: functional, organism-based
[4] = test system: Aspergillus fumigatus; experiment: Antifungal activity against Aspergillus fumigatus ATCC 204305 by CLSI method; assay type: functional, organism-based
[5] = test system: Cryptococcus neoformans; experiment: Antifungal activity against Cryptococcus neoformans ATCC 90113 by CLSI method; assay type: functional, organism-based
[6] = test system: Staphylococcus aureus; experiment: Antibacterial activity against methicillin-resistant Staphylococcus aureus ATCC 33591 by CLSI method; assay type: functional, organism-based; conditions: for MIC / IC50: Staphylococcus aureus, ATCC 33591; for IC50: read-out: IC50
[7] = test system: Mycobacterium intracellulare; experiment: Antibacterial activity against Mycobacterium intracellulare ATCC 23068 by alamar blue assay; assay type: functional, organism-based
[8] = test system: Candida albicans; experiment: Antifungal activity against Candida albicans ATCC 90028 by CLSI method; assay type: functional, organism-based
[9] = test system: Staphylococcus aureus; experiment: Antibacterial activity against Staphylococcus aureus ATCC 29213 by CLSI method; assay type: functional, organism-based
[10] = Leishmania donovani, 72 h, read-out: IC50
[11] = Mycobacterium intracellulare, ATCC 23068, read-out: IC50

## COc1cc(C(c2c[nH]c3ccccc23)c2c[nH]c3ccccc23)ccc1O
[1]
  Activity: Non-toxic
[2]
  IC90: inactive
[2]; [10]
  IC50: 75 µM
[3]; Leishmania donovani, 72 h
  IC90: 98.9 µM
[3]; [10]
  IC50: 86 µM

## COc1ccc2[nH]cc(C(c3ccc(O)c(OC)c3)c3c[nH]c4ccc(OC)cc34)c2c1
[1]
  Activity: Non-toxic
[2]
  IC50: Not Active
  IC90: inactive
[3]
  IC50: Not Active
  IC90: inactive

## Fc1cc(F)cc(C(c2c[nH]c3ccccc23)c2c[nH]c3ccccc23)c1
[4]
  Activity: inactive
[1]
  Activity: Non-toxic
[5]
  IC50: 2.32 µM
  MFC: 3.49 µM (≈ 1.25 µg/mL)
  MIC: 3.49 µM (≈ 1.25 µg/mL)
[6]
  MBC: inactive
  MIC: 6.98 µM (≈ 2.5 µg/mL)
  IC50: 2.93 µM
[7]
  IC50: Not Active
  MBC: inactive
  MIC: inactive
[8]
  Activity: inactive
[2]; Leishmania donovani, 72 h
  IC90: 95.6 µM
[2]; [10]
  IC50: 67.4 µM
[9]
  IC50: 2.32 µM
  MBC: inactive
  MIC: 3.49 µM (≈ 1.25 µg/mL)
[3]; Leishmania donovani, 72 h
  IC90: 19.8 µM
[3]; [10]
  IC50: 8.35 µM

## O=[N+]([O-])c1ccc(C(c2c[nH]c3ccccc23)c2c[nH]c3ccccc23)cc1
[1]
  Activity: Non-toxic
[2]; Leishmania donovani, 72 h
  IC90: 72.3 µM
[2]; [10]
  IC50: 40.8 µM
[3]; Leishmania donovani, 72 h
  IC90: 54.3 µM
[3]; [10]
  IC50: 15.9 µM

## COc1ccc2[nH]cc(C(c3cccs3)c3c[nH]c4ccc(OC)cc34)c2c1
[1]
  Activity: Non-toxic
[2]; Leishmania donovani, 72 h
  IC90: 84.8 µM
[2]; [10]
  IC50: 59 µM
[3]; Leishmania donovani, 72 h
  IC90: 65.8 µM
[3]; [10]
  IC50: 38.1 µM

## COc1ccc2[nH]cc(C(c3c4ccccc4cc4ccccc34)c3c[nH]c4ccc(OC)cc34)c2c1
[1]
  Activity: Non-toxic
[2]
  IC90: inactive
[2]; [10]
  IC50: 39.8 µM
[3]; Leishmania donovani, 72 h
  IC90: 64.9 µM
[3]; [10]
  IC50: 34.6 µM

## O=[N+]([O-])c1ccc(C(c2c[nH]c3ccc(I)cc23)c2c[nH]c3ccc(I)cc23)cc1
[1]
  Activity: Non-toxic
[2]; Leishmania donovani, 72 h
  IC90: 38.4 µM
[2]; [10]
  IC50: 8.37 µM
[3]; Leishmania donovani, 72 h
  IC90: 10.2 µM
[3]; [10]
  IC50: 7.88 µM

## O=[N+]([O-])c1ccc(C(c2c[nH]c3ccccc23)c2c[nH]c3ccccc23)o1
[4]
  Activity: inactive
[1]
  Activity: Non-toxic
[5]
  IC50: 29.6 µM
  MFC: inactive
  MIC: inactive
[6]
  MBC: inactive
  MIC: 14 µM (≈ 5 µg/mL)
  IC50: 8.54 µM
[7]
  MBC: inactive
  MIC: inactive
[7]; [11]
  IC50: 52.9 µM
[8]
  Activity: inactive
[2]; Leishmania donovani, 72 h
  IC90: 41.8 µM
[2]; [10]
  IC50: 31.5 µM
[9]
  IC50: 12 µM
  MBC: 28 µM (≈ 10 µg/mL)
  MIC: 28 µM (≈ 10 µg/mL)
[3]; Leishmania donovani, 72 h
  IC90: 12.2 µM
[3]; [10]
  IC50: 6.61 µM

## N=C(N)c1ccc(OCCCCCOc2ccc(C(=N)N)cc2)cc1 [PENTAMIDINE]
[2]; Leishmania donovani, 72 h
  IC90: 14.3 µM
[3]; Leishmania donovani, 72 h
  IC90: 6.21 µM
[3]; [10]
  IC50: 3.29 µM

## Fc1ccc(C(c2c[nH]c3ccc(I)cc23)c2c[nH]c3ccc(I)cc23)cc1Br
[4]
  Activity: inactive
[1]
  Activity: Non-toxic
[5]
  IC50: 16.8 µM
  MFC: 29.9 µM (≈ 20 µg/mL)
  MIC: 29.9 µM (≈ 20 µg/mL)
[8]
  Activity: inactive
[2]; Leishmania donovani, 72 h
  IC90: 31.4 µM
[2]; [10]
  IC50: 18.2 µM
[3]; Leishmania donovani, 72 h
  IC90: 18.2 µM
[3]; [10]
  IC50: 9.84 µM

## O=[N+]([O-])c1ccc(C(c2c[nH]c3ccc(I)cc23)c2c[nH]c3ccc(I)cc23)o1
[1]
  Activity: Non-toxic
[6]
  MBC: inactive
  MIC: 32.8 µM (≈ 20 µg/mL)
  IC50: 11.3 µM
[7]
  IC50: Not Active
  MBC: inactive
  MIC: inactive
[2]; Leishmania donovani, 72 h
  IC90: 28.9 µM
[2]; [10]
  IC50: 25.3 µM
[9]
  IC50: 7.52 µM
  MBC: 16.4 µM (≈ 9.99 µg/mL)
  MIC: 16.4 µM (≈ 9.99 µg/mL)
[3]; Leishmania donovani, 72 h
  IC90: 6.22 µM
[3]; [10]
  IC50: 3.02 µM

## O=C(O)c1cn(C2CC2)c2cc(N3CCNCC3)c(F)cc2c1=O [CIPROFLOXACIN]
[7]; Mycobacterium intracellulare, ATCC 23068
  MBC: 3.02 µM (≈ 1 µg/mL)
[7]; [11]
  IC50: 1 µM

## Fc1cc(F)cc(C(c2c[nH]c3ccc(I)cc23)c2c[nH]c3ccc(I)cc23)c1
[1]
  Activity: Non-toxic
[2]; Leishmania donovani, 72 h
  IC90: 44.5 µM
[2]; [10]
  IC50: 23.2 µM
[3]; Leishmania donovani, 72 h
  IC90: 41.2 µM
[3]; [10]
  IC50: 24.2 µM

## Oc1ccc(C(c2c[nH]c3ccccc23)c2c[nH]c3ccccc23)cc1
[4]
  Activity: inactive
[1]
  Activity: Non-toxic
[5]
  IC50: 18.9 µM
  MFC: 59.2 µM (≈ 20 µg/mL)
  MIC: 29.6 µM (≈ 10 µg/mL)
[6]
  MBC: inactive
  MIC: 59.2 µM (≈ 20 µg/mL)
  IC50: 17.8 µM
[7]
  IC50: Not Active
  MBC: inactive
  MIC: inactive
[8]
  Activity: inactive
[2]; Leishmania donovani, 72 h
  IC90: 88.9 µM
[2]; [10]
  IC50: 51.3 µM
[9]
  IC50: 10.5 µM
  MBC: inactive
  MIC: 29.6 µM (≈ 10 µg/mL)
[3]; Leishmania donovani, 72 h
  IC90: 106 µM
[3]; [10]
  IC50: 92.8 µM
